Test results from patent US20060264419A1 (priority 2003, published 2006).

Assays:
5-HT2A receptors = 5-HT2A receptors (Rattus norvegicus, UniProt P14842); test: in-vitro affinity to 5-HT2A receptors, displacement of [3H]ketanserine (Example A1); assay type: binding; details: read-out: HT2A IC50
Source text: The 5-HT2A receptors are exposed both to [^3H]ketanserine (a substance which is known for its affinity to the receptor) and also to the test compound. The decrease in the affinity of [^3H]ketanserine to the receptor is an indication of the affinity of the test substance to the 5-HT2A receptor.

5 HT2C receptor = target: T1, 5 HT2C receptor (Homo sapiens, UniProt P28335); test: affinity to the 5 HT2C receptor; assay type: binding
T1 sequence (P28335 33-458): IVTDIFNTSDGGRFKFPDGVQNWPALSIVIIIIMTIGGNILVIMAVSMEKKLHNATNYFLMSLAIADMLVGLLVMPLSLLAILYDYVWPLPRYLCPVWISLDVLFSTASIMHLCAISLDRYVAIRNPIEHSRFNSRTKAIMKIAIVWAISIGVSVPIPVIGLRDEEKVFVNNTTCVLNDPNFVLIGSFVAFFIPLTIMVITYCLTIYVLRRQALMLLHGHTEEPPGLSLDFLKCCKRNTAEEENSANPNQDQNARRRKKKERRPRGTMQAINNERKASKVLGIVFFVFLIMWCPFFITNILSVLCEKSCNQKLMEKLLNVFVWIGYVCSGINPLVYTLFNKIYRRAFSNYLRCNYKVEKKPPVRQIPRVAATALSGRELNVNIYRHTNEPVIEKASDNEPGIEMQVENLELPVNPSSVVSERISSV

Chain of 5-HT2A receptors (P14842 whole entry): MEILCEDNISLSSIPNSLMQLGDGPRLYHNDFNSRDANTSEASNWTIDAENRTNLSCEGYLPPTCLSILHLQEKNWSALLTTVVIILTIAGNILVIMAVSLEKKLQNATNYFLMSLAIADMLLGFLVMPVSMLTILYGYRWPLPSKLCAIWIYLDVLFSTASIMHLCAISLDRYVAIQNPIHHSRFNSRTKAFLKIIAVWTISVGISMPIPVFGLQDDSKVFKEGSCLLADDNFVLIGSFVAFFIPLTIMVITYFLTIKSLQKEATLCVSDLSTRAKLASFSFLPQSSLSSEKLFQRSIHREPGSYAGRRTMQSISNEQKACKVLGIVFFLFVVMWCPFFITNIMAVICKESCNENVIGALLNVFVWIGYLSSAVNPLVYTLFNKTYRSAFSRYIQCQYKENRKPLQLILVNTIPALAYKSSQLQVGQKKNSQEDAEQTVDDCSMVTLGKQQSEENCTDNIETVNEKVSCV

| Structure (SMILES) | IC50 (5-HT2A receptors) [nM] | IC50 (5 HT2C receptor) [nM] |
| --- | --- | --- |
| COc1ccc(-c2ccc(-n3ncc(CN4CCN(C)CC4)c3-c3ccccc3F)cc2)cc1 [Example 895, 1-[5-(2-Fluorophenyl)-1-(4′-methoxy-biphenyl-4-yl)-1H-pyrazol-4-ylmethyl]-4-methyl-piperazine] | 7.5 | 1150 |
| CC(C)(C)OC(=O)N1CCN(Cc2cnn(-c3ccc(C(F)(F)F)cc3)c2-c2ccccc2F)CC1 [Example 896, tert-Butyl 4-[5-(2-fluorophenyl)-1-(4-trifluoro-methylphenyl)-1H-pyrazol-4-ylmethyl]-piperazine-1-carboxylate] | 8 | 43000 |
| CCN(CC)Cc1cnn(-c2ccc(-c3ccccc3)cc2)c1-c1ccccc1F [Example 897, [1-Biphenyl-4-yl-5-(2-fluorophenyl)-1H-pyrazol-4-ylmethyl]diethylamine] | 11 | 1000 |
| Fc1ccccc1-c1c(CCN2CCOCC2)cnn1-c1ccc(-c2ccccc2)cc1 [Example 898, 4-{2-[1-Biphenyl-4-yl-5-(2-fluoro-phenyl)-1H-pyrazol-4-yl]ethyl}morpholine] | 12 | 1000 |
| CN1CCN(Cc2cnn(-c3ccc(-c4ccc(F)cc4)cc3)c2-c2ccccc2)CC1 [Example 900, 1-[1-(4′-Fluorobiphenyl-4-yl)-5-phenyl-1H-pyrazol-4-ylmethyl]-4-methylpiperazine] | 13 | 310 |
| CN1CCN(Cc2cnn(-c3ccc(-c4ccc5c(c4)OCCO5)cc3)c2-c2ccccc2F)CC1 [Example 901, 1-[1-[4-(2,3-Dihydrobenzo[1,4]dioxin-6-yl)-phenyl]-5-(2-fluorophenyl)-1H-pyrazol-4-yl-methyl]-4-methyl-piperazine] | 13 | 870 |
| CN1CCN(Cc2cnn(-c3ccc(-c4ccc(F)cc4)cc3)c2-c2ccccc2F)CC1 [Example 902, 1-[1-(4′-Fluorobiphenyl-4-yl)-5-(2-fluoro-phenyl)-1H-pyrazol-4-ylmethyl]-4-methyl-piperazine] | 13.1 | 215 |
| CN1CCN(NCc2cnn(-c3ccc(-c4ccccc4)cc3)c2-c2ccccc2F)CC1 [Example 903, [1-Biphenyl-4-yl-5-(2-fluorophenyl)-1H-pyrazol-4-ylmethyl]-(4-methylpiperazin-1-yl)amine] | 14 | 470 |
| OC1CCN(Cc2cnn(-c3ccc(-c4ccccc4)cc3)c2-c2ccccc2F)C1 (stereo not shown) [Example 904, 1-[1-Biphenyl-4-yl-5-(2-fluorophenyl)-1H-pyrazol-4-ylmethyl]pyrrolidin-3-ol] | 14 | 2000 |
| COCCNCc1cnn(-c2ccc(-c3ccccc3)cc2)c1-c1ccccc1F [Example 905, [1-Biphenyl-4-yl-5-(2-fluorophenyl)-1H-pyrazol-4-ylmethyl]-(2-methoxyethyl)amine] | 16 | 1000 |
| CN(CCO)Cc1cnn(-c2ccc(-c3ccccc3)cc2)c1-c1ccccc1F [Example 906, 2-{[1-Biphenyl-4-yl-5-(2-fluorophenyl)-1H-pyrazol-4-ylmethyl]methylamino}ethanol] | 16 | 1000 |
| CN1CCC(N(C)Cc2cnn(-c3ccc(-c4ccccc4)cc3)c2-c2ccccc2F)C1 (stereo not shown) [Example 907, [1-Biphenyl-4-yl-5-(2-fluorophenyl)-1H-pyrazol-4-ylmethyl]methyl-(1-methylpyrrolidin-3-yl)amine] | 16 | 84 |
| CN1CCN(Cc2cnn(-c3ccc(-n4cccc4)cc3)c2-c2ccccc2F)CC1 [Example 909, 1-[5-(2-Fluorophenyl)-1-(4-pyrrol-1-ylphenyl)-1H-pyrazol-4-ylmethyl]-4-methylpiperazine] | 17 | 210 |
| CN(C)CCN(C)Cc1cnn(-c2ccc(-c3ccccc3)cc2)c1-c1ccccc1F [Example 912, N-[1-Biphenyl-4-yl-5-(2-fluorophenyl)-1H-pyrazol-4-ylmethyl]-N,N′,N′-trimethylethane-1,2-diamine] | 20 | 920 |
| OC1CCN(CCc2cnn(-c3ccc(-c4ccc(F)cc4)cc3)c2-c2ccccc2F)C1 (stereo not shown) [Example 913, 1-{2-[1-(4′-Fluorobiphenyl-4-yl)-5-(2-fluoro-phenyl)-1H-pyrazol-4-yl]ethyl}pyrrolidin-3-ol] | 20 | 620 |
| CN(C)Cc1cnn(-c2ccc(-c3ccccc3)cc2)c1-c1ccccc1F [Example 914, [1-Biphenyl-4-yl-5-(2-fluorophenyl)-1H-pyrazol-4-ylmethyl]dimethylamine] | 21 | 450 |
| NCc1cnn(-c2ccc(-c3ccccc3)cc2)c1-c1ccccc1 [Example 915, C-(1-Biphenyl-4-yl-5-phenyl-1H-pyrazol-4-yl)-methylamine] | 21 | 920 |
| Cc1ccc(-c2ccc(-n3ncc(CN4CCN(C)CC4)c3-c3ccccc3F)cc2)cc1 [Example 916, 1-[5-(2-Fluorophenyl)-1-(4′-methylbiphenyl-4-yl)-1H-pyrazol-4-ylmethyl]-4-methylpiperazine] | 22 | 960 |
| c1ccc(-c2ccc(-n3ncc(CNCc4ccccn4)c3-c3ccccc3)cc2)cc1 [Example 918, (1-Biphenyl-4-yl-5-phenyl-1H-pyrazol-4-yl-methyl)pyridin-2-ylmethylamine] | 23 | 1000 |
| Fc1ccc(CCN2CCN(Cc3cnn(-c4ccccn4)c3-c3ccccc3F)CC2)c(F)c1 [Example 919, 1-[2-(2,4-Difluorophenyl)ethyl]-4-[5-(2-fluoro-phenyl)-1-pyridin-2-yl-1H-pyrazol-4-ylmethyl]-piperazine] | 23 | 1000 |
| CN1CCN(Cc2cnn(-c3ccc(-c4ccc(Cl)cc4)cc3)c2-c2ccccc2F)CC1 [Example 920, 1-[1-(4′-Chlorobiphenyl-4-yl)-5-(2-fluoro-phenyl)-1H-pyrazol-4-ylmethyl]-4-methyl-piperazine] | 23 | 330 |
| CN1CCN(CCc2cnn(-c3ccc(-c4ccc(F)cc4)cc3)c2-c2ccccc2F)CC1 [Example 921, 1-{2-[1-(4′-Fluorobiphenyl-4-yl)-5-(2-fluoro-phenyl)-1H-pyrazol-4-yl]ethyl}-4-methylpiperazine] | 23.3 | 730 |
| CN1CCN(Cc2cnn(-c3ccc(-c4ccccc4)cn3)c2-c2ccccc2F)CC1 [Example 922, 1-[5-(2-Fluorophenyl)-1-(5-phenyl-pyridin-2-yl)-1H-pyrazol-4-ylmethyl]-4-methylpiperazine] | 24 | 660 |
| CN1CCN(Cc2cnn(-c3ccc(-c4ccc(F)cc4)cc3)c2-c2ccc(F)cc2)CC1 [Example 923, 1-[1-(4′-Fluorobiphenyl-4-yl)-5-(4-fluoro-phenyl)-1H-pyrazol-4-ylmethyl]-4-methylpiperazine] | 25 | 750 |
| Fc1ccccc1-c1c(CN2CCNCC2)cnn1-c1ccc(-c2ccccc2)cc1 [Example 924, 1-[1-Biphenyl-4-yl-5-(2-fluorophenyl)-1H-pyrazol-4-ylmethyl]piperazine] | 26 | 660 |
| Cn1cccc1CNCc1cnn(-c2ccc(-c3ccccc3)cc2)c1-c1ccccc1 [Example 925, (1-Biphenyl-4-yl-5-phenyl-1H-pyrazol-4-yl-methyl)-(1-methyl-1H-pyrrol-2-ylmethyl)amine] | 26 | 520 |
